Test results from PubChem BioAssay AID1259407 (Chemical Carcinogenesis Research Information System (CCRIS), 2018).
Activity calls are given as the source filed them. No rule for the calls is given here.

System: CCRIS mutagenicity, Ames/micronucleus/aberration tests
Test: CCRIS mutagenicity studies
[1] = Test System: AMES SALMONELLA TYPHIMURIUM, Strain/Indicator: TA97, Metabolic Activation: NONE, Method: PREINCUBATION
[2] = Test System: AMES SALMONELLA TYPHIMURIUM, Strain/Indicator: TA98, Metabolic Activation: NONE, Method: PREINCUBATION
[3] = Test System: AMES SALMONELLA TYPHIMURIUM, Strain/Indicator: TA98, Metabolic Activation: NONE, Method: STANDARD PLATE
[4] = Test System: AMES SALMONELLA TYPHIMURIUM, Strain/Indicator: TA98, Metabolic Activation: RAT, LIVER, S-9, AROCLOR 1254 (10%), Method: PREINCUBATION
[5] = Test System: AMES SALMONELLA TYPHIMURIUM, Strain/Indicator: TA98, Metabolic Activation: RAT, LIVER, S-9, AROCLOR 1254, Method: PREINCUBATION
[6] = Test System: AMES SALMONELLA TYPHIMURIUM, Strain/Indicator: TA100, Metabolic Activation: NONE, Method: PREINCUBATION
[7] = Test System: AMES SALMONELLA TYPHIMURIUM, Strain/Indicator: TA100, Metabolic Activation: RAT, LIVER, S-9, AROCLOR 1254 (10%), Method: PREINCUBATION
[8] = Test System: AMES SALMONELLA TYPHIMURIUM, Strain/Indicator: TA100, Metabolic Activation: RAT, LIVER, S-9, AROCLOR 1254, Method: PREINCUBATION
[9] = Test System: AMES SALMONELLA TYPHIMURIUM, Strain/Indicator: TA102, Metabolic Activation: NONE, Method: PREINCUBATION
[10] = Test System: AMES SALMONELLA TYPHIMURIUM, Strain/Indicator: TA102, Metabolic Activation: RAT, LIVER, S-9, AROCLOR 1254 (10%), Method: PREINCUBATION
[11] = Test System: AMES SALMONELLA TYPHIMURIUM, Strain/Indicator: TA98, Metabolic Activation: RAT, LIVER, S-9, PCB, Method: PREINCUBATION

Structure (SMILES): Cc1ccco1
- mutagenic call [1]: inactive; negative
- mutagenic call (Test System: AMES SALMONELLA TYPHIMURIUM, Strain/Indicator: TA98, Metabolic Activation: HAMSTER, LIVER, S-9, AROCLOR 1254 (10%), Method: PREINCUBATION): inactive; negative
- mutagenic call (Test System: AMES SALMONELLA TYPHIMURIUM, Strain/Indicator: TA98, Metabolic Activation: HAMSTER, LIVER, S-9, AROCLOR 1254 (30%), Method: PREINCUBATION): inactive; negative
- mutagenic call [2]: inactive; negative
- mutagenic call [3]: inactive; negative
- mutagenic call [4]: inactive; negative
- mutagenic call (Test System: AMES SALMONELLA TYPHIMURIUM, Strain/Indicator: TA98, Metabolic Activation: RAT, LIVER, S-9, AROCLOR 1254 (30%), Method: PREINCUBATION): inactive; negative
- mutagenic call [5]: inactive; negative
- mutagenic call (Test System: AMES SALMONELLA TYPHIMURIUM, Strain/Indicator: TA98, Metabolic Activation: S-9, Method: STANDARD PLATE): inactive; negative
- mutagenic call (Test System: AMES SALMONELLA TYPHIMURIUM, Strain/Indicator: TA100, Metabolic Activation: HAMSTER, LIVER, S-9, AROCLOR 1254 (10%), Method: PREINCUBATION): inactive; negative
- mutagenic call (Test System: AMES SALMONELLA TYPHIMURIUM, Strain/Indicator: TA100, Metabolic Activation: HAMSTER, LIVER, S-9, AROCLOR 1254 (30%), Method: PREINCUBATION): inactive; negative
- mutagenic call [6]: inactive; negative
- mutagenic call (Test System: AMES SALMONELLA TYPHIMURIUM, Strain/Indicator: TA100, Metabolic Activation: NONE, Method: STANDARD PLATE): inactive; negative
- mutagenic call [7]: inactive; negative
- mutagenic call (Test System: AMES SALMONELLA TYPHIMURIUM, Strain/Indicator: TA100, Metabolic Activation: RAT, LIVER, S-9, AROCLOR 1254 (30%), Method: PREINCUBATION): inactive; negative
- mutagenic call [8]: inactive; negative
- mutagenic call (Test System: AMES SALMONELLA TYPHIMURIUM, Strain/Indicator: TA100, Metabolic Activation: S-9, Method: STANDARD PLATE): inactive; negative
- mutagenic call (Test System: AMES SALMONELLA TYPHIMURIUM, Strain/Indicator: TA102, Metabolic Activation: HAMSTER, LIVER, S-9, AROCLOR 1254 (10 OR 30%), Method: PREINCUBATION): inactive; negative
- mutagenic call [9]: inactive; negative
- mutagenic call [10]: inactive; negative
- mutagenic call (Test System: AMES SALMONELLA TYPHIMURIUM, Strain/Indicator: TA102, Metabolic Activation: RAT, LIVER, S-9, AROCLOR 1254 (30%), Method: PREINCUBATION): inactive; negative
- mutagenic call (Test System: AMES SALMONELLA TYPHIMURIUM, Strain/Indicator: TA102, Metabolic Activation: RAT, LIVER, S-9, AROCLOR 1254, Method: PREINCUBATION): inactive; negative
- mutagenic call (Test System: AMES SALMONELLA TYPHIMURIUM, Strain/Indicator: TA104, Metabolic Activation: HAMSTER, LIVER, S-9, AROCLOR 1254 (5%), Method: PREINCUBATION): inactive; negative
- mutagenic call (Test System: AMES SALMONELLA TYPHIMURIUM, Strain/Indicator: TA104, Metabolic Activation: HAMSTER, LIVER, S-9, AROCLOR 1254 (10 OR 30%), Method: PREINCUBATION): inactive; negative
- mutagenic call (Test System: AMES SALMONELLA TYPHIMURIUM, Strain/Indicator: TA104, Metabolic Activation: NONE, Method: PREINCUBATION): inactive; negative
- mutagenic call (Test System: AMES SALMONELLA TYPHIMURIUM, Strain/Indicator: TA104, Metabolic Activation: RAT, LIVER, S-9, AROCLOR 1254 (5%), Method: PREINCUBATION): inactive; negative
- mutagenic call (Test System: AMES SALMONELLA TYPHIMURIUM, Strain/Indicator: TA104, Metabolic Activation: RAT, LIVER, S-9, AROCLOR 1254 (10 OR 30%), Method: PREINCUBATION): inactive; negative
- mutagenic call (Test System: AMES SALMONELLA TYPHIMURIUM, Strain/Indicator: TA1535, Metabolic Activation: HAMSTER, LIVER, S-9, AROCLOR 1254 (10 OR 30%), Method: PREINCUBATION): inactive; negative
- mutagenic call (Test System: AMES SALMONELLA TYPHIMURIUM, Strain/Indicator: TA1535, Metabolic Activation: NONE, Method: PREINCUBATION): inactive; negative
- mutagenic call (Test System: AMES SALMONELLA TYPHIMURIUM, Strain/Indicator: TA1535, Metabolic Activation: RAT, LIVER, S-9, AROCLOR 1254 (10 OR 30%), Method: PREINCUBATION): inactive; negative

Structure (SMILES): Fc1ccc(F)c2ncccc12
- mutagenic call (Test System: AMES SALMONELLA TYPHIMURIUM, Strain/Indicator: TA100, Metabolic Activation: RAT LIVER S-9, PHENOBARBITAL AND 5,6-BENZOFLAVONE, Method: PREINCUBATION): active; positive
- mutagenic call (Test System: AMES SALMONELLA TYPHIMURIUM, Strain/Indicator: TA100, Metabolic Activation: RAT, LIVER, S-9, PHENOBARBITAL AND 5,6-BENZOFLAVONE, Method: PREINCUBATION): active; positive

Structure (SMILES): Cc1c(O)cc2c(c1O)C(=O)c1ccccc1C2=O
- mutagenic call [2]: inactive; negative
- mutagenic call [5]: active; positive
- mutagenic call [11]: active; positive
- mutagenic call [6]: inactive; negative
- mutagenic call [8]: active; positive
- mutagenic call (Test System: AMES SALMONELLA TYPHIMURIUM, Strain/Indicator: TA100, Metabolic Activation: RAT, LIVER, S-9, PCB, Method: PREINCUBATION): active; positive
- mutagenic call (Test System: AMES SALMONELLA TYPHIMURIUM, Strain/Indicator: TA1537, Metabolic Activation: NONE, Method: PREINCUBATION): inactive; negative
- mutagenic call (Test System: AMES SALMONELLA TYPHIMURIUM, Strain/Indicator: TA1537, Metabolic Activation: RAT, LIVER, S-9, AROCLOR 1254, Method: PREINCUBATION): active; positive
- mutagenic call (Test System: UDS RODENT HEPATOCYTES, Strain/Indicator: THY INCORP, Metabolic Activation: NONE): active; positive

Structure (SMILES): ClCC(Br)CCl
- mutagenic call (Test System: AMES SALMONELLA TYPHIMURIUM, Strain/Indicator: TA100, Metabolic Activation: RAT, LIVER, MICROSOMES, PHENOBARBITAL, NADPH COFACTORS, Method: STANDARD PLATE): active; positive
- mutagenic call (Test System: AMES SALMONELLA TYPHIMURIUM, Strain/Indicator: TA100, Metabolic Activation: RAT, LIVER, MICROSOMES, PHENOBARBITAL, Method: STANDARD PLATE): inactive; negative

Structure (SMILES): CCCSP(=O)(OCC)Oc1ccc(Br)cc1Cl (stereo not given)
- mutagenic call (End Point: In vitro chromosomal aberrations, Test System: Human peripheral lymphocytes, Metabolic Activation: None): active; positive (structural changes)
- mutagenic call (End Point: In vivo chromosomal aberrations, Test System: Bone marrow cells, Species: Mouse, Strain/Sex: Swiss/Male, Route: Oral): active; positive (structural changes and ploidy)

Structure (SMILES): C[C@H](CCC(=O)O)[C@H]1CC[C@H]2[C@@H]3C(=O)C[C@@H]4CC(=O)CC[C@]4(C)[C@H]3CC[C@]12C
- mutagenic call (Test System: AMES SALMONELLA TYPHIMURIUM, Strain/Indicator: TA98, Metabolic Activation: NONE, Method: FLUCTUATION TEST): inactive; negative
- mutagenic call [2]: inactive; negative
- mutagenic call [11]: inactive; negative
- mutagenic call (Test System: AMES SALMONELLA TYPHIMURIUM, Strain/Indicator: TA100, Metabolic Activation: NONE, Method: FLUCTUATION TEST): inactive; negative

Structure (SMILES): c1ccc2c(c1)ccc1c2ccc2cccnc21
- mutagenic call [3]: inactive; negative
- mutagenic call (Test System: AMES SALMONELLA TYPHIMURIUM, Strain/Indicator: TA98, Metabolic Activation: RAT, LIVER, S-9, AROCLOR 1254, Method: STANDARD PLATE): active; positive
- mutagenic call (Test System: AMES SALMONELLA TYPHIMURIUM, Strain/Indicator: TA100, Metabolic Activation: RAT, LIVER, S-9, AROCLOR 1254, Method: STANDARD PLATE): active; positive

Structure (SMILES): COc1ccc(/C=N/n2nnc3c([nH]c4ccccc43)c2=O)cc1
- mutagenic call [1]: active; positive
- mutagenic call (Test System: AMES SALMONELLA TYPHIMURIUM, Strain/Indicator: TA97, Metabolic Activation: RAT, LIVER, S-9, AROCLOR 1254 (10%), Method: PREINCUBATION): active; positive
- mutagenic call [2]: active; positive
- mutagenic call [4]: active; positive
- mutagenic call [6]: active; positive
- mutagenic call [7]: active; positive
- mutagenic call [9]: inactive; negative
- mutagenic call [10]: inactive; negative
